Data taken from patent US20250115577A1, “BCL-2 Inhibitors” (Eil Therapeutics, Inc., priority 2021, published 2025).

Experiments:
[1] = system: caspase-3 and -7 activities in RS4-11 cells; experiment: Caspase-3/7 activation (Caspase-Glo 3/7) in RS4-11 cells; type: cell-based; settings: Homo sapiens, 3.5 h, read-out: Cas-3/7 EC50
Method: Example E. Caspase-3/7 Activation
Assay Principle: The Caspase-Glo 3/7 Assay is homogeneous, luminescent assay that measures caspase-3 and -7 activities. The assay provides a luminogenic caspase-3/7 substrate, which contains the tetrapeptide sequence DEVD, in a reagent optimized for caspase activity.
Assay Procedure: Incubate RS4-11 (ATCC, CRL-1873) cells in the 384-well white plate (Corning, #3570) with varying concentrations of test compounds for 3.5 h in a humidified incubator at 37° C. and 5% CO2 […]. Add 15 μL of the Caspase-Glo (Promega, #8212) reagent to each well and to incubate the plate for 30 min at rt. Read on the CLARIOstar Plus (BMG LABTECH) instrument.
(§1) Instrumentation: CLARIOstar Plus (BMG LABTECH); Biomek FX for liquid handling (Beckman Coulter).

BCL-2 = BCL-2 (Homo sapiens (Human), UniProt P10415); experiment: BCL-2 TR-FRET Assay (primary PPI inhibition); type: binding; settings: 60 min incubation, read-out: BCL2 IC50
Method: Example A. BCL-2 TR-FRET Assay (BPS Bioscience, #50222)
(§2) The following assay concentrations and times were used: 3 ng of BCL-2, 5 μL of 1:100 anti-His Tb-labeled donor, 5 μL of 1:100 Dye-labeled acceptor, 5 µL of 1:40 BCL-2 Peptide Ligand, and 2 μL of 200× test compound, with 60 min incubation time (final concentration of DMSO 0.5%). The results of the assay were read using a plate reader with the following parameters: TR FRET, 340ex/620 and 665em; 60 usec Delay; and 500 usec integration.
as §1

RS4-11 cells = experiment: Cell viability assay (CellTiter-Glo), RS4-11; type: cell-based; settings: Homo sapiens, RS4-11, 72 h, 3 days of incubation
Method: (§3) Example D. Cell Viability Assays (Cell lines HEK293, RS4-11, MOLT-4)
(§4) Cells were seeded at a density of 4000 cells per well in the 384-well clear bottom plate (Greiner Cat #781090) to the 45 μL total volume of either DMEM (PanEco, Cat #C420, for HEK293) or RPMI (PanEco, Cat #C330, for other cell lines) with 10% FBS(HyClone Cat #SV30160.03). Prior to adding compounds, the HEK293 cells were allowed to adhere overnight at 37° C. and 5% CO2. The 500× compounds solutions in DMSO(Sigma Cat #D2650) were dispersed into a 384-well compound plate (Diamond Well Plate, Axigen, Cat #P-384-120 SQ-C—S) including only DMSO control. The 1 μL aliquots of the 500× compounds from the compound plate were added to 49 μL of culture medium in the Dilution plate (Diamond Well Plate, Axigen, Cat #P-384-120 SQ-C—S), mixed and then the 5 μL aliquts of the 10× compound solutions were transferred to cells followed by centrifugation at 100 g for 1 min. Final DMSO concentration was 0.2%. After 3 days of incubation the 10 μL aliquots of CellTiter-Glo (Promega, CAT #G7572) were added to the cells, plate was centrifuged at 100 g for 1 min and the luminescence was measured on the CLARIOstar Plus (BMG LABTECH) instrument.
as §1

BCL-2 [G101V] = BCL-2 [G101V] (Homo sapiens (Human), UniProt P10415, G101V); experiment: BCL-2 [G101V] TR-FRET Assay (primary PPI inhibition); type: binding; settings: 60 min incubation, read-out: BCL2[G101V] IC50
Method: Example C. BCL-2 [G101V]TR-FRET Assay
as §2, with “0.22 ng/μl” for “3 ng”, “BCL-2 (SinoBiological, #10195-H08E1),” for “BCL-2,”, “μL” for “µL”, “Ligand (BPS Bioscience, #50223),” for “Ligand,”
as §1

[2] = Cell viability assay (CellTiter-Glo), HEK293; type: cell-based; settings: human, HEK293 cells, 3 days of incubation
Method: as §3, §4, §1

BCL-xL = BCL-xL (Homo sapiens (Human), UniProt Q07817); experiment: BCL-xL TR-FRET Assay (primary PPI inhibition); type: binding; settings: 60 min incubation, read-out: BCLxL IC50
Method: Example B. BCL-xL TR-FRET Assay (BPS Bioscience, #50223)
as §2, with “used: 10.5” for “used: 3”, “of BCL-xL,” for “of BCL-2,”, “of 1:120” for “of 1:100”, “5 μL” for “5 µL”, “of 1:96 BCL-xL” for “of 1:40 BCL-2”, “Ligand,” for “Ligand, and”
as §1

MOLT-4 cells = experiment: Cell viability assay (CellTiter-Glo), MOLT-4; type: cell-based; settings: Homo sapiens, 72 h, 3 days of incubation
Method: as §3, §4, §1

Sequence of BCL-xL (Q07817 whole entry): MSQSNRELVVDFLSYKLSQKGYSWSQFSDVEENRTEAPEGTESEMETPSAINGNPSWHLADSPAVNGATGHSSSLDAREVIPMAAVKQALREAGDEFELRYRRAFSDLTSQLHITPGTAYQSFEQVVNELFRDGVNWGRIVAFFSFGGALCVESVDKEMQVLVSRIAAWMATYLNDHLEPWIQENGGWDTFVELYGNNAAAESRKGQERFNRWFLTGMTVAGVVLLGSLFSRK

Compound	EC50 [1] [nM]	IC50 (BCL-2) [nM]	CC50 (RS4-11 cells) [nM]	IC50 (BCL-2 [G101V]) [nM]	CC50 at 3 days [2] [nM]	IC50 (BCL-xL) [nM]	CC50 (MOLT-4 cells) [nM]
COc1ccccc1CN(C(=O)c1cc(-c2cc(F)ccc2C(=O)N2Cc3ccccc3C[C@H]2CN2CCOCC2)n(C)c1C)c1ccc(O)cc1 [Compound 54, 5-[5-fluoro-2-[(3S)-3-(morpholinomethyl)-3,4-dihydro-1H-isoquinoline-2-carbonyl]phenyl]-N-(4-hydroxyphenyl)-N-[(2-methoxyphenyl)methyl]-1,2-dimethyl-pyrrole-3-carboxamide]	> 500	5 to 10	100 to 200	≤ 100	> 25000	≤ 2000	≤ 5000
COc1cccc(CN(C(=O)c2cc(-c3cc(C(F)F)c(Cl)cc3C(=O)N3Cc4ccccc4C[C@H]3CN3CCOCC3)n(C)c2C)c2ccc(O)cc2)c1C [Compound 43, 5-[4-chloro-5-(difluoromethyl)-2-[(3S)-3-(morpholinomethyl)-3,4-dihydro-1H-isoquinoline-2-carbonyl]phenyl]-N-(4-hydroxyphenyl)-N-[(3-methoxy-2-methyl-phenyl)methyl]-1,2-dimethyl-pyrrole-3-carboxamide]	> 500	≤ 5	> 200	100 to 1000	> 25000	2000 to 5000	≤ 5000
COc1cccc(CN(C(=O)c2cc(-c3cc(F)ccc3C(=O)N3Cc4ccccc4C[C@H]3CN3CCOCC3)n(C)c2C)c2ccc(O)cc2)c1C [Compound 52, 5-[5-fluoro-2-[(3S)-3-(morpholinomethyl)-3,4-dihydro-1H-isoquinoline-2-carbonyl]phenyl]-N-(4-hydroxyphenyl)-N-[(3-methoxy-2-methyl-phenyl)methyl]-1,2-dimethyl-pyrrole-3-carboxamide]	200 to 500	≤ 5	≤ 100	≤ 100	> 25000	2000 to 5000	≤ 5000
Cc1c(C(=O)N(Cc2ccccc2C#N)c2ccc(O)cc2)cc(-c2cc(Cl)ccc2C(=O)N2Cc3ccccc3C[C@H]2CN2CCOCC2)n1C [Compound 6, 5-[5-chloro-2-[(3S)-3-(morpholinomethyl)-3,4-dihydro-1H-isoquinoline-2-carbonyl]phenyl]-N-[(2-cyanophenyl)methyl]-N-(4-hydroxyphenyl)-1,2-dimethyl-pyrrole-3-carboxamide]	200 to 500	≤ 5	100 to 200	≤ 100	10000 to 25000	≤ 2000	5000 to 10000
COc1cccc(CN(C(=O)c2cc(-c3cc(Cl)ccc3C(=O)N3Cc4ccccc4C[C@H]3CN3CCOCC3)n(C)c2C)c2ccc(O)cc2)c1C [Compound 7, 5-[5-chloro-2-[(3S)-3-(morpholinomethyl)-3,4-dihydro-1H-isoquinoline-2-carbonyl]phenyl]-N-(4-hydroxyphenyl)-N-[(3-methoxy-2-methyl-phenyl)methyl]-1,2-dimethyl-pyrrole-3-carboxamide]	≤ 200	≤ 5	≤ 100	≤ 100	10000 to 25000	2000 to 5000	5000 to 10000
N#Cc1ccccc1CN(C(=O)c1cc(-c2cc(Cl)ccc2C(=O)N2Cc3ccccc3C[C@H]2CN2CCOCC2)n2c1CCCC2)c1ccc(O)cc1 [Compound 3, 3-[5-chloro-2-[(3S)-3-(morpholinomethyl)-3,4-dihydro-1H-isoquinoline-2-carbonyl]phenyl]-N-[(2-cyanophenyl)methyl]-N-(4-hydroxyphenyl)-5,6,7,8-tetrahydroindolizine-1-carboxamide]	200 to 500	≤ 5	100 to 200	≤ 100	10000 to 25000	> 5000	≤ 5000
COc1cccc(CN(C(=O)c2cc(-c3cc(Cl)ccc3C(=O)N3Cc4ccccc4C[C@H]3CN3CCOCC3)n3c2CCCC3)c2ccc(Cl)cc2)c1C [Compound 2, 3-[5-chloro-2-[(3S)-3-(morpholinomethyl)-3,4-dihydro-1H-isoquinoline-2-carbonyl]phenyl]-N-(4-chlorophenyl)-N-[(3-methoxy-2-methyl-phenyl)methyl]-5,6,7,8-tetrahydroindolizine-1-carboxamide]	> 500	10 to 50	–	> 1000	–	> 5000	–
COc1cccc(CN(C(=O)c2cc(-c3cc(F)c(OC(F)F)cc3C(=O)N3Cc4ccccc4C[C@H]3CN3CCOCC3)n(C)c2C)c2ccc(O)cc2)c1C [Compound 16, 5-[4-(difluoromethoxy)-5-fluoro-2-[(3S)-3-(morpholinomethyl)-3,4-dihydro-1H-isoquinoline-2-carbonyl]phenyl]-N-(4-hydroxyphenyl)-N-[(3-methoxy-2-methyl-phenyl)methyl]-1,2-dimethyl-pyrrole-3-carboxamide]	200 to 500	5 to 10	> 200	> 1000	> 25000	2000 to 5000	≤ 5000
COc1cccc(CN(C(=O)c2cc(-c3cc(S(C)(=O)=O)ccc3C(=O)N3Cc4ccccc4C[C@H]3CN3CCOCC3)n(C)c2C)c2ccc(O)cc2)c1C [Compound 49, N-(4-hydroxyphenyl)-N-[(3-methoxy-2-methyl-phenyl)methyl]-1,2-dimethyl-5-[5-methylsulfonyl-2-[(3S)-3-(morpholinomethyl)-3,4-dihydro-1H-isoquinoline-2-carbonyl]phenyl]pyrrole-3-carboxamide]	–	≤ 5	≤ 100	≤ 100	> 25000	2000 to 5000	5000 to 10000
N#Cc1ccccc1CN(C(=O)c1cc(-c2cc(Cl)ccc2C(=O)N2Cc3ccccc3C[C@H]2CN2CCOCC2)n2c1CCCC2)c1ccc(Cl)cc1 [Compound 1, 3-[5-chloro-2-[(3S)-3-(morpholinomethyl)-3,4-dihydro-1H-isoquinoline-2-carbonyl]phenyl]-N-(4-chlorophenyl)-N-[(2-cyanophenyl)methyl]-5,6,7,8-tetrahydroindolizine-1-carboxamide]	> 500	> 50	–	> 1000	–	> 5000	–
COc1cccc(CN(C(=O)c2cc(-c3cc(NC(C)=O)ccc3C(=O)N3Cc4ccccc4C[C@H]3CN3CCOCC3)n(C)c2C)c2ccc(O)cc2)c1C [Compound 48, 5-[5-acetamido-2-[(3S)-3-(morpholinomethyl)-3,4-dihydro-1H-isoquinoline-2-carbonyl]phenyl]-N-(4-hydroxyphenyl)-N-[(3-methoxy-2-methyl-phenyl)methyl]-1,2-dimethyl-pyrrole-3-carboxamide]	–	5 to 10	–	100 to 1000	–	2000 to 5000	–
